Reference: the supplement of paper PMC10307832

Legend:
Assay in all cases: relative viability (nuclei count vs DMSO), 5 days (fraction); higher = more cells survive
[1] = compound: CC1=CC(=NN1)NC2=CC(=NC(=N2)/C=C/C3=CC=CC=C3)N4CCN(CC4)C
Outline: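 Hoechst staining, done together with fixation and permeabilisation, marked nuclei for 4× imaging and MetaXpress counting. This followed 5 days without medium change after lung cancer cell lines, kept overnight at 37 °C in 1536-well plates, were pinned with five library-drug doses (not always all listed) spaced by √10 on vehicle-anchored plates. Viability is the ratio of treated-well to vehicle-well nuclei, expressed as a median across plates. Plates passed only at control CV below 25% with at least one doubling.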

Bortezomib + Dasatinib = compound: CC(C)C[C@H](NC(=O)[C@H](Cc1ccccc1)NC(=O)c1cnccn1)B(O)O [Bortezomib] + Cc1nc(Nc2ncc(C(=O)Nc3c(C)cccc3Cl)s2)cc(N2CCN(CCO)CC2)n1 [Dasatinib] (partner 0.075 µM)
Outline: (§1)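 Nuclei were stained with Hoechst during a one-step fixation (final 0.05% Triton X-100, 1% formaldehyde, 1 ug/ml Hoechst) carried out 5 days after dosing, then counted on 4× images. The cells, lung cancer lines in 1536-well plates, had been dosed by pin tool the day after seeding with one drug alone or a fixed anchor-drug dose plus five library-drug doses (not always all listed) in √10 steps. Relative viability is the nuclei count in treated wells divided by that in vehicle wells, and each value is the median of duplicate plates.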

[2] = compound: CC1=CC(=NN1)NC2=CC(=NC(=N2)/C=C/C3=CC=CC=C3)N4CCN(CC4)C + CC(=O)c1c(C)c2cnc(Nc3ccc(N4CCNCC4)cn3)nc2n(C2CCCC2)c1=O [Palbociclib] (partner 0.5 µM)
Outline: as §1

[3] = compound: CC1=CC(=NN1)NC2=CC(=NC(=N2)/C=C/C3=CC=CC=C3)N4CCN(CC4)C + Nc1nc2[nH]cc(CCc3ccc(C(=O)N[C@@H](CCC(=O)O)C(=O)O)cc3)c2c(=O)[nH]1 [Pemetrexed] (partner 0.2 µM)
Outline: as §1

Cell Line: HCC-78
- relative viability ([1]; 0.08 µM): 0.904
- relative viability ([1]; 0.253 µM): 1.14
- relative viability ([1]; 0.8 µM): 1.08
- relative viability ([1]; 2.53 µM): 0.701
- relative viability ([1]; 8 µM): 0.27
- relative viability (Bortezomib + Dasatinib; first compound 0.0002 µM): 0.354
- relative viability (Bortezomib + Dasatinib; first compound 0.000632 µM): 0.385
- relative viability (Bortezomib + Dasatinib; first compound 0.002 µM): 0.291
- relative viability (Bortezomib + Dasatinib; first compound 0.006325 µM): 0.422
- relative viability (Bortezomib + Dasatinib; first compound 0.02 µM): 0.274
- relative viability ([2]; first compound 0.08 µM): 0.469
- relative viability ([2]; first compound 0.253 µM): 0.439
- relative viability ([2]; first compound 0.8 µM): 0.546
- relative viability ([2]; first compound 2.53 µM): 0.398
- relative viability ([2]; first compound 8 µM): 0.338
- relative viability ([3]; first compound 0.08 µM): 0.804
- relative viability ([3]; first compound 0.253 µM): 0.91
- relative viability ([3]; first compound 0.8 µM): 0.926
- relative viability ([3]; first compound 2.53 µM): 0.938
- relative viability ([3]; first compound 8 µM): 0.874

Cell Line: HCC-366
- relative viability ([1]; 0.08 µM): 0.954
- relative viability ([1]; 0.253 µM): 1.03
- relative viability ([1]; 0.8 µM): 0.985
- relative viability ([1]; 2.53 µM): 0.452
- relative viability ([1]; 8 µM): 0.0338
- relative viability (Bortezomib + Dasatinib; first compound 0.0002 µM): 0.664
- relative viability (Bortezomib + Dasatinib; first compound 0.000632 µM): 0.474
- relative viability (Bortezomib + Dasatinib; first compound 0.002 µM): 0.726
- relative viability (Bortezomib + Dasatinib; first compound 0.006325 µM): 0.481
- relative viability (Bortezomib + Dasatinib; first compound 0.02 µM): 0.0296
- relative viability ([2]; first compound 0.08 µM): 0.414
- relative viability ([2]; first compound 0.253 µM): 0.368
- relative viability ([2]; first compound 0.8 µM): 0.344
- relative viability ([2]; first compound 2.53 µM): 0.0349
- relative viability ([2]; first compound 8 µM): 0.019
- relative viability ([3]; first compound 0.08 µM): 0.171
- relative viability ([3]; first compound 0.253 µM): 0.189
- relative viability ([3]; first compound 0.8 µM): 0.187
- relative viability ([3]; first compound 2.53 µM): 0.0462
- relative viability ([3]; first compound 8 µM): 0.0222

Cell Line: HCC-827
- relative viability ([1]; 0.08 µM): 1.02
- relative viability ([1]; 0.253 µM): 1.06
- relative viability ([1]; 0.8 µM): 1.06
- relative viability ([1]; 2.53 µM): 0.89
- relative viability ([1]; 8 µM): 0.443
- relative viability (Bortezomib + Dasatinib; first compound 0.0002 µM): 0.302
- relative viability (Bortezomib + Dasatinib; first compound 0.000632 µM): 0.285
- relative viability (Bortezomib + Dasatinib; first compound 0.002 µM): 0.259
- relative viability (Bortezomib + Dasatinib; first compound 0.006325 µM): 0.34
- relative viability (Bortezomib + Dasatinib; first compound 0.02 µM): 0.199
- relative viability ([2]; first compound 0.08 µM): 0.445
- relative viability ([2]; first compound 0.253 µM): 0.514
- relative viability ([2]; first compound 0.8 µM): 0.505
- relative viability ([2]; first compound 2.53 µM): 0.501
- relative viability ([2]; first compound 8 µM): 0.231
- relative viability ([3]; first compound 0.08 µM): 0.159
- relative viability ([3]; first compound 0.253 µM): 0.241
- relative viability ([3]; first compound 0.8 µM): 0.262
- relative viability ([3]; first compound 2.53 µM): 0.266
- relative viability ([3]; first compound 8 µM): 0.171

Cell Line: HOP-62
- relative viability ([1]; 0.08 µM): 1.03
- relative viability ([1]; 0.253 µM): 1.11
- relative viability ([1]; 0.8 µM): 1.04
- relative viability ([1]; 2.53 µM): 0.825
- relative viability ([1]; 8 µM): 0.367
- relative viability (Bortezomib + Dasatinib; first compound 0.0002 µM): 0.581
- relative viability (Bortezomib + Dasatinib; first compound 0.000632 µM): 0.645
- relative viability (Bortezomib + Dasatinib; first compound 0.002 µM): 0.713
- relative viability (Bortezomib + Dasatinib; first compound 0.006325 µM): 0.228
- relative viability (Bortezomib + Dasatinib; first compound 0.02 µM): 0.068
- relative viability ([2]; first compound 0.08 µM): 0.41
- relative viability ([2]; first compound 0.253 µM): 0.458
- relative viability ([2]; first compound 0.8 µM): 0.492
- relative viability ([2]; first compound 2.53 µM): 0.371
- relative viability ([2]; first compound 8 µM): 0.154
- relative viability ([3]; first compound 0.08 µM): 0.364
- relative viability ([3]; first compound 0.253 µM): 0.328
- relative viability ([3]; first compound 0.8 µM): 0.288
- relative viability ([3]; first compound 2.53 µM): 0.294
- relative viability ([3]; first compound 8 µM): 0.182
